# Laboratory results taken from PubChem BioAssay AID1963840 (Molecular Pharmacology Branch, DTP, NCI, 2024).
# Tested on: 695427-040-R-J1-PDC complex spheroid viability
# Experiment: Anticancer human tumor 695427-040-R-J1-PDC patient-derived colon adenocarcinoma cell line growth inhibition [POLQ]
# Details: for IC50: curve of first compound; for viability, T/C: stronger effect = lower value
# In short: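 Patient-derived tumour cells were co-cultured with HUVEC and mesenchymal stem cells as multicellular spheroids at 37 °C. They were treated with POLQ inhibitors (novobiocin, ART-558, RP6685) alone or combined with other agents. Top concentrations were at or near clinical Cmax (otherwise 10 microM; SN-38 at 1 microM), decreasing in half-log steps.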
# [1] = second compound 0.0316 µM, first compound 0.0316 µM
# [2] = second compound 0.0316 µM, first compound 0.1 µM
# [3] = second compound 0.0316 µM, first compound 0.316 µM
# [4] = second compound 0.0316 µM, first compound 1 µM
# [5] = second compound 0.0316 µM, first compound 3.16 µM
# [6] = second compound 0.0316 µM, first compound 10 µM
# [7] = second compound 0.1 µM, first compound 0.0316 µM
# [8] = second compound 0.1 µM, first compound 0.1 µM
# [9] = second compound 0.1 µM, first compound 0.316 µM
# [10] = second compound 0.1 µM, first compound 1 µM
# [11] = second compound 0.1 µM, first compound 3.16 µM
# [12] = second compound 0.1 µM, first compound 10 µM
# [13] = second compound 0.316 µM, first compound 0.0316 µM
# [14] = second compound 0.316 µM, first compound 0.1 µM
# [15] = second compound 0.316 µM, first compound 0.316 µM
# [16] = second compound 0.316 µM, first compound 1 µM
# [17] = second compound 0.316 µM, first compound 3.16 µM
# [18] = second compound 0.316 µM, first compound 10 µM
# [19] = second compound 1 µM, first compound 0.0316 µM
# [20] = second compound 1 µM, first compound 0.1 µM
# [21] = second compound 1 µM, first compound 0.316 µM
# [22] = second compound 1 µM, first compound 1 µM
# [23] = second compound 1 µM, first compound 3.16 µM
# [24] = second compound 1 µM, first compound 10 µM
# [25] = second compound 3.16 µM, first compound 0.0316 µM
# [26] = second compound 3.16 µM, first compound 0.1 µM
# [27] = second compound 3.16 µM, first compound 0.316 µM
# [28] = second compound 3.16 µM, first compound 1 µM
# [29] = second compound 3.16 µM, first compound 3.16 µM
# [30] = second compound 3.16 µM, first compound 10 µM
# [31] = second compound 10 µM, first compound 0.0316 µM
# [32] = second compound 10 µM, first compound 0.1 µM
# [33] = second compound 10 µM, first compound 0.316 µM
# [34] = second compound 10 µM, first compound 1 µM
# [35] = second compound 10 µM, first compound 3.16 µM
# [36] = second compound 10 µM, first compound 10 µM
# 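Also: spheroids exposed to compounds for seven days.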
# 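For viability, T/C in this document: 100% = DMSO vehicle control viability.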
smiles,measurement,setting,value
C=CC(=O)N1CCN(c2nc(=O)n(-c3c(C)ccnc3C(C)C)c3nc(-c4c(O)cccc4F)c(F)cc23)C(C)C1 (stereo unspecified) + Cc1cccc(N(C)C(=O)C2C(O)CCN2c2nc(C)cc(C(F)(F)F)c2C#N)c1,IC50,second compound 0.0316 µM,> 10 µM
same,IC50,second compound 0.1 µM,> 10 µM
same,IC50,second compound 0.316 µM,> 10 µM
same,IC50,second compound 1 µM,> 10 µM
same,IC50,second compound 3.16 µM,> 10 µM
same,IC50,second compound 10 µM,> 10 µM
same,"viability, T/C",[1],98.8%
same,"viability, T/C",[2],93.9%
same,"viability, T/C",[3],101%
same,"viability, T/C",[4],105%
same,"viability, T/C",[5],107%
same,"viability, T/C",[6],110%
same,"viability, T/C",[7],96.2%
same,"viability, T/C",[8],92.4%
same,"viability, T/C",[9],101%
same,"viability, T/C",[10],108%
same,"viability, T/C",[11],99.9%
same,"viability, T/C",[12],104%
same,"viability, T/C",[13],103%
same,"viability, T/C",[14],103%
same,"viability, T/C",[15],101%
same,"viability, T/C",[16],104%
same,"viability, T/C",[17],101%
same,"viability, T/C",[18],106%
same,"viability, T/C",[19],98.1%
same,"viability, T/C",[20],98.5%
same,"viability, T/C",[21],97.8%
same,"viability, T/C",[22],99.4%
same,"viability, T/C",[23],97.5%
same,"viability, T/C",[24],102%
same,"viability, T/C",[25],97.8%
same,"viability, T/C",[26],84.5%
same,"viability, T/C",[27],97.9%
same,"viability, T/C",[28],93.4%
same,"viability, T/C",[29],103%
same,"viability, T/C",[30],107%
same,"viability, T/C",[31],87.8%
same,"viability, T/C",[32],91.8%
same,"viability, T/C",[33],87.5%
same,"viability, T/C",[34],101%
same,"viability, T/C",[35],102%
same,"viability, T/C",[36],105%
CC(C)n1c(=O)n(C)c2cnc3cc(F)c(-c4ccc(OCCCN5CCCCC5)nc4)cc3c21 + Cc1cccc(N(C)C(=O)C2C(O)CCN2c2nc(C)cc(C(F)(F)F)c2C#N)c1,IC50,second compound 0.0316 µM,> 10 µM
same,IC50,second compound 0.1 µM,> 10 µM
same,IC50,second compound 0.316 µM,> 10 µM
same,IC50,second compound 1 µM,> 10 µM
same,IC50,second compound 3.16 µM,> 10 µM
same,IC50,second compound 10 µM,> 10 µM
same,"viability, T/C",[1],97.5%
same,"viability, T/C",[2],98.8%
same,"viability, T/C",[3],101%
same,"viability, T/C",[4],111%
same,"viability, T/C",[5],98.3%
same,"viability, T/C",[6],75.8%
same,"viability, T/C",[7],99.3%
same,"viability, T/C",[8],102%
same,"viability, T/C",[9],110%
same,"viability, T/C",[10],108%
same,"viability, T/C",[11],96.8%
same,"viability, T/C",[12],70.3%
same,"viability, T/C",[13],104%
same,"viability, T/C",[14],101%
same,"viability, T/C",[15],106%
same,"viability, T/C",[16],113%
same,"viability, T/C",[17],92.7%
same,"viability, T/C",[18],68.7%
same,"viability, T/C",[19],101%
same,"viability, T/C",[20],102%
same,"viability, T/C",[21],105%
same,"viability, T/C",[22],103%
same,"viability, T/C",[23],102%
same,"viability, T/C",[24],67.2%
same,"viability, T/C",[25],98.5%
same,"viability, T/C",[26],100%
same,"viability, T/C",[27],102%
same,"viability, T/C",[28],98.5%
same,"viability, T/C",[29],98.2%
same,"viability, T/C",[30],67%
same,"viability, T/C",[31],93.5%
same,"viability, T/C",[32],99.9%
same,"viability, T/C",[33],99.6%
same,"viability, T/C",[34],101%
same,"viability, T/C",[35],100%
same,"viability, T/C",[36],55.7%
CC1COCCN1c1cc(-c2ccnn2C)c2ccnc(-c3ccn[nH]3)c2n1 (stereo unspecified) + Cc1cccc(N(C)C(=O)C2C(O)CCN2c2nc(C)cc(C(F)(F)F)c2C#N)c1,IC50,second compound 0.0316 µM,1.91 µM
same,IC50,second compound 0.1 µM,2.18 µM
same,IC50,second compound 0.316 µM,1.36 µM
same,IC50,second compound 1 µM,1.89 µM
same,IC50,second compound 3.16 µM,1.98 µM
same,IC50,second compound 10 µM,1.79 µM
same,"viability, T/C",[1],97.1%
same,"viability, T/C",[2],83%
same,"viability, T/C",[3],61.4%
same,"viability, T/C",[4],53.4%
same,"viability, T/C",[5],49%
same,"viability, T/C",[6],46.5%
same,"viability, T/C",[7],95.2%
same,"viability, T/C",[8],83.1%
same,"viability, T/C",[9],66.1%
same,"viability, T/C",[10],51.1%
same,"viability, T/C",[11],49.1%
same,"viability, T/C",[12],48.4%
same,"viability, T/C",[13],104%
same,"viability, T/C",[14],83.5%
same,"viability, T/C",[15],65.3%
same,"viability, T/C",[16],46.4%
same,"viability, T/C",[17],49.5%
same,"viability, T/C",[18],46.9%
same,"viability, T/C",[19],89.3%
same,"viability, T/C",[20],77.8%
same,"viability, T/C",[21],59.9%
same,"viability, T/C",[22],46.1%
same,"viability, T/C",[23],52.8%
same,"viability, T/C",[24],49.5%
same,"viability, T/C",[25],97.9%
same,"viability, T/C",[26],78.7%
same,"viability, T/C",[27],66.1%
same,"viability, T/C",[28],48.5%
same,"viability, T/C",[29],49%
same,"viability, T/C",[30],48%
same,"viability, T/C",[31],86.5%
same,"viability, T/C",[32],74.2%
same,"viability, T/C",[33],61.2%
same,"viability, T/C",[34],49.5%
same,"viability, T/C",[35],50.4%
same,"viability, T/C",[36],47.1%
